According to article PMC8699473, “An Easily Expandable Multi-Drug LC-MS Assay for the Simultaneous Quantification of 57 Oral Antitumor Drugs in Human Plasma” (Cancers, 2021):

How the values were obtained:
[1] = set-up: method as in supplement references [1-55] as printed per drug; settings: minimum steady-state blood plasma concentration after multiple dose administration; ref supplement references [1-55] per drug; cited from earlier work
[2] = Short-term stability in spiked pooled human plasma (bench-top, 4 °C, 56 °C)

SMILES	cmin [1]	light sensitivity ([2]; acceptance limit <85%)	Short-time stability (1h, 56°C) Accuracy [%] ([2]; validation standard 2xLLOV)	Short-time stability (24h, 4°C, without daylight) Accuracy [%] ([2]; validation standard 2xLLOV)	Short-time stability (24h, RT, with daylight) Accuracy [%] ([2]; validation standard 2xLLOV)	Short-time stability (24h, RT, without daylight) Accuracy [%] ([2]; validation standard 2xLLOV)	Short-time stability (1h, 56°C) Accuracy [%] ([2]; validation standard LLOV)	Short-time stability (24h, 4°C, without daylight) Accuracy [%] ([2]; validation standard LLOV)	Short-time stability (24h, RT, with daylight) Accuracy [%] ([2]; validation standard LLOV)	Short-time stability (24h, RT, without daylight) Accuracy [%] ([2]; validation standard LLOV)	Short-time stability (1h, 56°C) Accuracy [%] ([2]; validation standard MOV)	Short-time stability (24h, 4°C, without daylight) Accuracy [%] ([2]; validation standard MOV)	Short-time stability (24h, RT, with daylight) Accuracy [%] ([2]; validation standard MOV)	Short-time stability (24h, RT, without daylight) Accuracy [%] ([2]; validation standard MOV)	Short-time stability (1h, 56°C) Accuracy [%] ([2]; validation standard ULOV)	Short-time stability (24h, 4°C, without daylight) Accuracy [%] ([2]; validation standard ULOV)	Short-time stability (24h, RT, with daylight) Accuracy [%] ([2]; validation standard ULOV)	Short-time stability (24h, RT, without daylight) Accuracy [%] ([2]; validation standard ULOV)
CC(C)(C)c1nc(-c2cccc(NS(=O)(=O)c3c(F)cccc3F)c2F)c(-c2ccnc(N)n2)s1 [Dabrafenib]	46.6 ng/mL	no losses of concentrations below the acceptance limit	46.2%	99.6%	98.0%	107.6%	42.8%	112.7%	97.0%	108.2%	42.4%	100.0%	97.7%	99.3%	35.6%	94.0%	100.2%	99.7%
Cc1nc(Nc2ncc(C(=O)Nc3c(C)cccc3Cl)s2)cc(N2CCN(CCO)CC2)n1 [Dasatinib]	2.61 ng/mL	–	47.7%	102.2%	90.1%	98.3%	65.9%	124.4%	90.7%	115.9%	46.4%	100.1%	91.7%	90.0%	38.9%	96.7%	99.4%	93.1%
COC(=O)N[C@@H](C)CNc1nccc(-c2cn(C(C)C)nc2-c2cc(Cl)cc(NS(C)(=O)=O)c2F)n1 [Encorafenib]	23 ng/mL	–	54.9%	106.5%	109.5%	112.9%	–	110.1%	108.1%	104.0%	54.0%	102.1%	105.9%	109.8%	44.5%	98.5%	108.8%	108.3%
CNC(=O)c1ccc(N2C(=S)N(c3ccc(C#N)c(C(F)(F)F)c3)C(=O)C2(C)C)cc1F [Enzalutamide]	11400 ng/mL	–	59.4%	103.3%	106.1%	108.3%	50.0%	102.0%	100.4%	103.0%	58.9%	98.9%	108.7%	107.8%	50.9%	95.8%	103.4%	103.8%
COc1cc2ncnc(Nc3ccc(F)c(Cl)c3)c2cc1OCCCN1CCOCC1 [Gefitinib]	291 ng/mL	–	46.0%	97.4%	91.9%	92.1%	33.3%	90.9%	83.0%	83.7%	49.1%	103.4%	96.2%	93.8%	42.1%	94.9%	88.3%	87.7%
